The source of these data is publication PMC10189894 (Chemical Science, 2023).

A short description of the experiment: Autohydrolytic cascade reaction. It counts as physicochemical. The conditions noted are these: EDTA at 10–200 μM; Fig. S9E.

`O=C(O)CN(CCN(CC(=O)O)CC(=O)O)CC(=O)O` [EDTA]: the “effect on the ACR” value is on record as “inhibitory effect”.
